Measured values reported in patent US10183952B2, “Thienopyrroles as histone demethylase inhibitors” (ISTITUTO EUROPEO DI ONCOLOGIA S.R.L., priority 2014, dated 2019).
Where a name gives a salt, the structure may show the parent alone.

Target: human recombinant KDM1A/CoREST protein (Homo sapiens, UniProt O60341)
Test: Assay of enzyme inhibition of KDM1A (LSD1), TR-FRET
Experimental: The intensity of the light emission is proportional to the level of biotinylated reaction product. The complex of human recombinant KDM1A/CoREST protein was produced in E. coli as separate proteins and co-purified as previously described.
Demethylase reaction was started by the addition of 50 nM histone H3K4 monomethylated.
The resulting mixture was incubated in the dark for 1 h at RT.
The IC50 was calculated using GraphPad Software.

| SMILES | IC50 |
| --- | --- |
| Cn1c(C(=O)Nc2ccccc2COc2ccc(CN3CCC4(CCNCC4)C3)cc2)cc2sccc21 [Example 41, N-[2-[[4-(2,8-diazaspiro[4.5]decan-2-ylmethyl)phenoxy]methyl]phenyl]-4-methyl-thieno[3,2-b]pyrrole-5-carboxamide] | < 10 µM |
| Cn1c(C(=O)Nc2cccc(COc3ccc(CNC(=N)N)cc3)c2)cc2sccc21 [Example 59, N-[3-[[4-(Guanidinomethyl)phenoxy]methyl]phenyl]-4-methyl-thieno[3,2-b]pyrrole-5-carboxamide; trifluoroacetic acid] | < 10 µM |
| COCc1cccc(NC(=O)c2cc3sccc3n2C)c1COc1ccc(OC[C@@H]2CCNC2)cc1 [Example 42, N-[3-(methoxymethyl)-2-[[4-[[(3R)-pyrrolidin-3-yl]methoxy]phenoxy]methyl]phenyl]-4-methyl-thieno[3,2-b]pyrrole-5-carboxamide hydrochloride] | < 10 µM |
| Cn1c(C(=O)Nc2ccccc2COc2ccc(NC3CCNCC3)cc2)cc2sccc21 [Example 39, 4-methyl-N-[2-[[4-(4-piperidylamino)phenoxy]methyl]phenyl]thieno[3,2-b]pyrrole-5-carboxamide; 2,2,2-trifluoroacetic acid] | < 10 µM |
| Cn1c(C(=O)Nc2ccccc2COc2ccc(N3CCNCC3)cc2)cc2sccc21 [Example 37, 4-methyl-N-[2-[(4-piperazin-1-ylphenoxy)methyl]phenyl]thieno[3,2-b]pyrrole-5-carboxamide] | < 10 µM |
| Cn1c(C(=O)Nc2cccc(COc3ccc(OC4CCCNC4)cc3)c2)cc2sccc21 (centres unmarked) [Example 28, 4-methyl-N-[3-[[4-(3-piperidyloxy)phenoxy]methyl]phenyl]thieno[3,2-b]pyrrole-5-carboxamide] | < 10 µM |
| Cn1c(C(=O)Nc2ccccc2C(=O)Nc2ccc(OC3CCNCC3)cc2)cc2sccc21 [Example 36, 4-methyl-N-[2-[[4-(4-piperidyloxy)phenyl]carbamoyl]phenyl]thieno[3,2-b]pyrrole-5-carboxamide] | < 10 µM |
| COCc1cccc(NC(=O)c2cc3sccc3n2C)c1COc1ccc(OC2CCNCC2)cc1 [Example 43, N-[3-(methoxymethyl)-2-[[4-(4-piperidyloxy)phenoxy]methyl]phenyl]-4-methyl-thieno[3,2-b]pyrrole-5-carboxamide hydrochloride] | < 10 µM |
| Cn1c(C(=O)Nc2ccccc2COc2ccc(OC3CCCNC3)cc2)cc2sccc21 (centres unmarked) [Example 27, 4-methyl-N-[2-[[4-(3-piperidyloxy)phenoxy]methyl]phenyl]thieno[3,2-b]pyrrole-5-carboxamide] | < 10 µM |
| Cn1c(C(=O)Nc2ccccc2OCC2CCNCC2)cc2sccc21 [Example 57, 4-Methyl-N-[2-(4-piperidylmethoxy)phenyl]thieno[3,2-b]pyrrole-5-carboxamide hydrochloride] | < 50 µM |
| Cn1c(C(=O)Nc2cccc(COc3ccc(OC4CCCNCC4)cc3)c2)cc2sccc21 (centres unmarked) [Example 33, N-[3-[[4-(azepan-4-yloxy)phenoxy]methyl]phenyl]-4-methyl-thieno[3,2-b]pyrrole-5-carboxamide] | < 10 µM |
| Cn1c(C(=O)Nc2cccc(COc3ccc(O[C@@H]4C[C@H]5CC[C@@H](C4)N5)cc3)c2)cc2sccc21 [Example 25, N-[3-[[4-[[(1S,5R)-8-azabicyclo[3.2.1]octan-3-yl]oxy]phenoxy]methyl]phenyl]-4-methyl-thieno[3,2-b]pyrrole-5-carboxamide] | < 10 µM |
| Cn1c(C(=O)Nc2cccc(COc3ccc(OC4CCNC4)cc3)c2)cc2sccc21 (centres unmarked) [Example 32, 4-methyl-N-[3-[(4-pyrrolidin-3-yloxyphenoxy)methyl]phenyl]thieno[3,2-b]pyrrole-5-carboxamide hydrochloride] | < 10 µM |
| Cn1c(C(=O)Nc2ccccc2COc2ccc(OC3CCNCC3)cn2)cc2sccc21 [Example 56, 4-Methyl-N-[2-[[5-(4-piperidyloxy)-2-pyridyl]oxymethyl]phenyl]thieno[3,2-b]pyrrole-5-carboxamide hydrochloride] | < 25 µM |
